This note sets out measurements from article PMC6983002, “Identification and Biological Evaluation of CK2 Allosteric Fragments through Structure-Based Virtual Screening” (Molecules, 2020).

What is called inhibition is the drop in the measured response relative to a control, in per cent. A word on the %Inhibition: it is how much of the control response was suppressed.

One test deals with CK2α (Homo sapiens, UniProt P68400). Put plainly: ADP-Glo kinase assay, CK2 inhibition. It counts as biochemical. The settings on record: for inhibition at 256 µM: 256 μM compound; for inhibition at 1024 µM: 1024 μM compound, read-out: inhibition rate at 1024 μM. As for the experimental part: In vitro CK2 kinase inhibition assay were carried out for the six compounds using ADP-Glo^TM kinase assay. […] As indicated in Table 1 and Figure 5a, these compounds presented the inhibitory effect on CK2α activity to different extent. At the concentration of 16 μM, compound 3 inhibited nearly 50% of CK2α activity. However, at the same concentration, other compounds had only 20% inhibitory activity. Furthermore, except compound 2 and 6, the inhibition rates of these compounds were about 70% and 30% at 256 μM, respectively, with the dose-dependent manner. The ADP-Glo^TM Kinase Assay (Promega, Madison, WI, USA) was used to test the CK2 inhibition effects of these compounds [30, 31]. As indicated by the relevant studies, competitive and noncompetitive inhibitors show the increased and similar IC50 values with increasing concentrations of ATP, respectively. Therefore, we were able to distinguish between ATP competitive and noncompetitive inhibitors of CK2 by exploring whether the IC50 value of inhibitors will change or not at 10 and 100 μM ATP. The kinase reaction was performed in 25 μL mixture containing 10 ng casein kinase 2α, 0.1 µg/μL casein protein, 10 µM or 100 µM ATP, 1× reaction buffer and serially diluted fragments (or DMSO for control). After 60 min incubation at room temperature, 25 μL of ADP-Glo^TM Reagent was added to terminate the kinase reaction and deplete the remaining ATP. Then 50 μL Kinase Detection Reagent was added to convert ADP to ATP within 30 min, and allow the newly synthesized ATP to produce a luminescence signal using luciferase/luciferin reaction, which was recorded by the luminescence panel of Microplate Reader (Enspire2300-001A, Perkin Elmer, Waltham, MA, USA).The luminescent signal is proportional to the ADP concentration produced and correlated with the kinase activity.
CK2α, sequence (P68400 whole entry): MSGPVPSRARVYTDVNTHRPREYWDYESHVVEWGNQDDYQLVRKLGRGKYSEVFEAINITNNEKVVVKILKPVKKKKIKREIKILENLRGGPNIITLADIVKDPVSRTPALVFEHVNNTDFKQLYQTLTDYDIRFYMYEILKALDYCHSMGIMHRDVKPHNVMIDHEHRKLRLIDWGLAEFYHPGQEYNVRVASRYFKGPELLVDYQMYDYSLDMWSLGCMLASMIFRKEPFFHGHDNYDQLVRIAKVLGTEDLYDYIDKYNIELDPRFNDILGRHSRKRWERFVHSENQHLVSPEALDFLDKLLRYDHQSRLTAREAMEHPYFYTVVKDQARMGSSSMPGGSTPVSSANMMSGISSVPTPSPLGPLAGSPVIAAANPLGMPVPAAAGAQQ

The next test deals with A549 cancer cells. Put plainly: CCK-8 cell proliferation assay, A549. To be noted: Homo sapiens, A549, 48 h treatment, read-out: IC50, inhibition of A549 cell proliferation. It counts as cell-based. The protocol:
With the aim of investigating the anti-cancer cell proliferative activity of the CK2 inhibitors, compound 3 and 4 was tested against human cancer cell lines based on Cell Counting Kit-8 (CCK-8) assay. […] We presumed that the functional uracil group of two compounds, which is also presented in the anti-cancer hits 5-fluorouracil, is essential and indispensable for anti-cancer activity.
Cell Counting Kit-8 (CCK-8 Dojindo Laboratories, Kyushu, Japan) assays was used to assess the cytotoxic activities of compound 3 and 4. A549 and HeLa cancer cells were seeded in 96-well flat-bottom culture plate at 2 × 10^4 cells/well and then cultured in an incubator of 5% CO2 and 37 °C for 24 h. After cells adherence, the cells were treated with targeted compounds at various concentrations for 48 h. Blank wells (containing culture medium only) and negative wells (untreated cells) served as controls. Following, 10 μL CCK-8 solutions was add to each well and incubated for 2 h at 37 °C, the absorbance was measured at 450 nm by using a microplate reader (Enspire 2300-001A, Perkin Elmer, Waltham, MA, USA).
On the technique in general: Tetrazolium assays rely on reduction of a dye to a coloured formazan, in cell work by metabolically active cells.

Where [1] appears, read: concentration-response, 10 μM ATP where stated, read-out: IC50 against CK2α.

pIC50: −log10 of the molar value. Read-outs that look alike come from different tables or passages of the source.

At CK2α (16 μM compound), `COc1ccc(C(=O)Nc2ccc(C(N)=O)cc2)cc1Br` [Compound 1] gave an inhibition at 16 µM of 14%. Moreover, the inhibition at 256 µM against CK2α was 27%.

Take `O=C(Cc1cccc2ccccc12)Nc1c[nH]c(=O)[nH]c1=O` [Compound 4]: the pIC50 in the test on A549 cancer cells was 5.06; at CK2α (setting [1]) it was ≥ 2.99. The inhibition at 16 µM against CK2α (16 μM compound) was 22%. For the same molecule, at 256 µM the inhibition against CK2α was 40%.

As to `Nc1cc(=O)nc(SCc2ccccc2Cl)[nH]1` [Compound 6], the inhibition at 16 µM against CK2α (16 μM compound) stood at 12%. Further, on CK2α, the inhibition at 256 µM came out at 18% and the inhibition at 1024 µM was < 50%.

On to `Cc1ccc(C(=O)Nc2c[nH]c(=O)[nH]c2=O)cc1C` [Compound 3], for which the pIC50 was 4.64 in the test with A549 cancer cells; 4.99 on CK2α (100 μM ATP, read-out: IC50 against CK2α in the presence of 100 μM ATP); 4.89 on CK2α (setting [1]). In addition, at CK2α (16 μM compound), the inhibition at 16 µM was ~50%. For the same molecule, the “%Inhibition at 16 μM” value at CK2α (16 μM compound, 16 µM) was 52%. For the same molecule, the inhibition at 64 µM at CK2α (64 μM compound) was > 50%. Further, 256 µM produced 72% inhibition at CK2α. The “mode of inhibition with respect to ATP” value on CK2α (IC50 compared at 10 μM and 100 μM ATP) is on record as “non-ATP competitive”.

In turn, `Cc1c(Cl)cccc1NC(=O)CC1NCCNC1=O` (stereo not shown) [Compound 5] yielded an inhibition at 16 µM at CK2α (16 μM compound) of 16%. Further, at CK2α, at 256 µM the inhibition was 29% and the inhibition at 1024 µM was < 50%.

In turn, `COc1ccc(C(=O)Nc2ccc3[nH]c(=O)[nH]c3c2)cc1Br` [Compound 2] registered an inhibition at 16 µM at CK2α (16 μM compound) of 16%. On CK2α, the inhibition at 256 µM amounted to 19%.
